Among the data in BindingDB's records for doi:10.1021/jm00350a009 (1982) are IC50 values, retold here.

The term IC50 denotes the concentration that inhibits the measured activity by half.

This assay can be described thus: Compound was tested for inhibition of [3H]dihydroalprenolol radioligand binding to Beta-1 adrenergic receptor in dog heart.
Compound `CC(C)(C)NC[C@H](O)CON=C1c2ccccc2-c2ccccc21` registered an IC50 of 29 nM.

`CC(C)(C)NC[C@@H](O)CON=C1c2ccccc2-c2ccccc21` came in with an IC50 of 43 nM.

`Cc1ccc(OCC(O)CNC(C)C)c2c1CCC2` (centres undefined) [1-Isopropylamino-3-(7-methyl-indan-4-yloxy)-propan-2-ol]: the IC50 is 186 nM.

Compound `CC(C)(C)NCC(O)CON=C1c2ccccc2-c2ccccc21` (centres undefined) [Fluoren-9-one O-(3-tert-butylamino-2-hydroxy-propyl)-oxime] gave an IC50 of 38 nM.
